{"source": "patent US9884122B2", "about": "“Small molecule drug conjugates” (Philochem AG, priority 2014, dated 2018)", "key": {"[1]": {"molecular_target": "T1, recombinant carbonic anhydrase IX (Homo sapiens, UniProt Q16790)", "T1 construct": "Recombinant CAIX was expressed as described previously; made in house", "assay": "Determination of ligand KD by fluorescence polarization", "type": "binding", "conditions": "for Kd: 5 nM labeled ligand, 1 h room temperature, read-out: KD for fluorophore-linker-ligand complexes", "procedure": "Fluorescently labeled ligands (2 mg) were dissolved in DMSO (100 μL) and diluted 1:2000 into PBS pH 7.4 to determine the stock's concentration by absorbance measurement at 495 nm (ε495=72,000 M^−1 cm^−1). Recombinant CAIX was expressed as described previously^[3], dialyzed against assay buffer (50 mM tris(hydroxymethyl)aminomethane [TIRS] pH 7.4 containing 1 mM ZnSO4) at 4° C. overnight and the protein concentration determined by absorbance measurement at 280 nm (ε280=35,075 M^−1 cm^−1).\nIn a black 384-well plate in assay buffer (30 μL) fluorescently labeled ligands (5 nM from appropriately diluted DMSO stocks, final DMSO content adjusted to 0.001%) were incubated with increasing concentrations of recombinant carbonic anhydrase IX (4.6 μM to 140 pM in steps of 1:2) for 1 h at room temperature. The fluorescence polarization (FP) was measured on a Spectra Max Paradigm multimode plate reader (Molecular Devices). Experiments were performed in triplicate, mean FP values divided by the top-plateau signal and the fractional FP value fit to equation (2) using KaleidaGraph 4.0 (Synergy Software). FP=([P]0+[L]0+KD)−√{square root over (([P]0+[L]0+KD)^2−4[P]0[L]0)} (2)\nWhere FP is the fractional fluorescence polarization, [P]0 the total protein concentration, [L]0 the total concentration of the fluorescently labeled ligand and KD the dissociation constant in nM."}, "[2]": {"test_system": "subcutaneous SKRC52 tumors", "conditions": "3 nmol intravenous, 1-12 h", "description": "SKRC52 cells were grown to 80% confluence and detached with Trypsin-EDTA 0.05% (Invitrogen). Cells were washed with PBS pH 7.4 once, counted and resuspended in PBS to a final concentration of 6.7×10^7 cells mL^−1. Athymic balb/c nu/nu mice, 8-10 weeks of age (Charles River) were anesthetized with isofluorane and aliquots of 1×10^7 cells (150 μL of suspension) injected subcutaneously into their lower back.\nFood and water was given ad libitum during that period.\nMice were subsequently sacrificed by cervical dislocation."}, "[3]": {"molecular_target": "T1, recombinant carbonic anhydrase IX", "assay": "biochemical", "type": "binding", "procedure": "The FP was measured on a Spectra Max Paradigm multimode plate reader (Molecular Devices). Experiments were performed in triplicate and data analyzed as described by Wang and co-workers.^[4]"}, "[4]": {"test_system": "CAIX expressing SKRC52 cells", "assay": "In vitro cytotoxicity assay (MTS)", "type": "cell-based, human", "procedure": "SKRC52 or A549 cells were seeded in 96-well plates in their appropriate culture medium (100 μL) at a density of 5000 cells per well and allowed to grow for 24 h. The medium was replaced with medium containing different concentrations of test substance (100 μL, 300 nM-15 pM in 1:3 dilution steps) and plates were either:\n(a) incubated for 72 hours in the presence of the toxic substance, or\n(b) incubated for 1 h under standard culture conditions, followed by removal of the medium containing the toxic substance, gently washing the cells fresh medium once and adding new medium (100 μL) and incubating for 72 h under culture conditions.\nMTS cell viability dye (20 μL, Promega) was added, the plates were incubated for 1 h under culture conditions and the absorbance at 490 nm measured on a Spectra Max Paradigm multimode plate reader (Molecular Devices). Experiments were performed in triplicate and average cell viability calculated as measured background corrected absorbance divided by the absorbance of untreated control wells. EC50 values were determined by fitting data to the four-parameter logistic equation."}, "[5]": {"test_system": "SKRC52 xenograft tumors", "procedure": "SKRC52 xenograft tumors were implanted into balb/c nu/nu mice (Charles River) as described above. […] 5 doses of 4 nmol 7a,b, 8a,b or 7 doses of 70 nmol 9a,b each in PBS pH 7.4 (150 μL) containing 5% DMSO were given on 5 or 7 consecutive days and one group was treated with vehicle (5% DMSO in PBS pH 7.4). In the case of 7-9b an equimolar amount of AAZ was added to the injection solution to control for a possible antitumor activity of CAIX inhibitors. Sorafenib and sunitnib were administered at a standard dose of 30 mg/kg as described previously.^[5] Animals were weighed and tumor sizes measured daily and the tumor volume calculated according to the formula (long side)×(short side)^2×0.5. […] Prism 6 (GraphPad Software) was used for data analysis (regular two-way ANOVA with the Bonferroni test)."}, "[6]": {"test_system": "CAIX-expressing SKRC52 xenografts", "conditions": "mouse, in vivo"}, "[7]": {"conditions": "Condition (b): 1 h exposure, wash, then 72 h, concentrations up to 300 nM"}, "[8]": {"conditions": "Homo sapiens, SK-RC-52, Condition (a): incubated 72 hours in the presence of the toxic substance"}, "[9]": {"conditions": "Homo sapiens, SK-RC-52, Condition (b): 1 h exposure, wash, then 72 h, concentrations up to 300 nM"}}, "data": [{"smiles": "NS(=O)(=O)c1nnc(NC(=O)CCC(=O)NCCOCCOCCNC(=S)Nc2ccc(-c3c4ccc(=O)cc-4oc4cc(O)ccc34)c(C(=O)O)c2)s1", "note": "[Compound 1a, N1-(2-(2-(2-aminoethoxy)ethoxy)ethyl)-N4-(5-sulfamoyl-1,3,4-thiadiazol-2-yl)succinamide fluorescein conjugate]", "values": [{"measurement": "Kd", "setting": "[1]", "value": "12.6 ± 1", "unit": "nM"}]}, {"smiles": "CC(C)[C@@H](C(=O)NCCOCCOCCNC(=S)Nc1ccc(-c2c3ccc(=O)cc-3oc3cc(O)ccc23)c(C(=O)O)c1)n1cc(-c2ccc(S(N)(=O)=O)cc2)nn1", "note": "[Compound 2a, (S)—N-(2-(2-(2-aminoethoxy)ethoxy)ethyl)-3-methyl-2-(4-(4-sulfamoylphenyl)-1H-1,2,3-triazol-1-yl)butanamide fluorescein conjugate]", "values": [{"measurement": "Kd", "setting": "[1]", "value": "18.1 ± 1.3", "unit": "nM"}]}, {"smiles": "CC(C)[C@@H](C(=O)NCCOCCOCCNC(=O)CCCCc1ccc(C2=C(/C=C/C3=[N+](CCCCS(=O)(=O)O)c4ccc(S(=O)(=O)O)cc4C3(C)C)CCC/C2=C\\C=C2\\N(CCCCS(=O)(=O)O)c3ccc(S(=O)(=O)[O-])cc3C2(C)C)cc1)n1cc(-c2ccc(S(N)(=O)=O)cc2)nn1", "note": "[Compound 2c, (S)—N-(2-(2-(2-aminoethoxy)ethoxy)ethyl)-3-methyl-2-(4-(4-sulfamoylphenyl)-1H-1,2,3-triazol-1-yl)butanamide IRDye750 conjugate]", "values": [{"measurement": "tumor targeting by near infrared imaging", "setting": "[2]", "value": "the tumor was barely visible"}]}, {"smiles": "NS(=O)(=O)c1ccc(Nc2nc(Cl)nc(NCCOCCOCCNC(=S)Nc3ccc(-c4c5ccc(=O)cc-5oc5cc(O)ccc45)c(C(=O)O)c3)n2)cc1", "note": "[Compound 3a, 4-((4-((2-(2-(2-aminoethoxy)ethoxy)ethyl)amino)-6-chloro-1,3,5-triazin-2-yl)amino)benzenesulfonamide fluorescein conjugate]", "values": [{"measurement": "Kd", "setting": "[1]", "value": "46.8 ± 1.2", "unit": "nM"}]}, {"smiles": "NS(=O)(=O)c1ccc(C(=O)NCCOCCOCCNC(=S)Nc2ccc(-c3c4ccc(=O)cc-4oc4cc(O)ccc34)c(C(=O)O)c2)cc1", "note": "[Compound 5a, N-(2-(2-(2-aminoethoxy)ethoxy)ethyl)-4-sulfamoylbenzamide fluorescein conjugate]", "values": [{"measurement": "Kd", "setting": "[1]", "value": "218 ± 9", "unit": "nM"}]}, {"smiles": "CC(C)(C)OC(=O)NCCOCCOCCNC(=S)Nc1ccc(-c2c3ccc(=O)cc-3oc3cc(O)ccc23)c(C(=O)O)c1", "note": "[Compound 6a, Tert-butyl (2-(2-(2-aminoethoxy)ethoxy)ethyl)carbamate fluorescein conjugate]", "values": [{"measurement": "binding to CAIX (in words)", "setting": "[1]", "value": "did not bind to the CAIX"}]}, {"smiles": "COc1cc2[nH]cc(C(=O)N3C[C@@H](CCl)c4c3cc(OC(=O)OCCSSC[C@H](NC(=O)[C@H](CC(=O)O)NC(=O)[C@H](CCCNC(=N)N)NC(=O)[C@H](CC(=O)O)NC(=O)CCCCn3cc(CCCC(=O)O)nn3)C(=O)O)c3ccccc43)c2cc1OCCN(C)C", "note": "[Compound 7b, Untargeted CBI Carbonate]", "values": [{"measurement": "binding affinity for recombinant CAIX in vitro (in words)", "setting": "[3]", "value": "do not exhibit strong binding"}, {"measurement": "Kd", "setting": "[3]; unlabeled drug-linker conjugate, read-out: KD (competitive fluorescence polarization)", "value": "> 1000", "unit": "nM"}, {"measurement": "EC50", "setting": "[4]; [7]", "value": "1.4 ± 0.3", "unit": "nM"}]}, {"smiles": "COc1cc2[nH]cc(C(=O)N3C[C@@H](CCl)c4c3cc(OC(=O)N(C)CCSSC[C@H](NC(=O)[C@H](CC(=O)O)NC(=O)[C@H](CCCNC(=N)N)NC(=O)[C@H](CC(=O)O)NC(=O)CCCCn3cc(CCCC(=O)O)nn3)C(=O)O)c3ccccc43)c2cc1OCCN(C)C", "note": "[Compound 8b, Untargeted CBI Carbamate]", "values": [{"measurement": "binding affinity for recombinant CAIX in vitro (in words)", "setting": "[3]", "value": "do not exhibit strong binding"}, {"measurement": "tumor growth effect", "setting": "[5]; 5 doses of 4 nmol on 5 consecutive days, 7a vs vehicle p<0.0001, vs 7b plus AAZ p<0.05", "value": "did not lead to any retardation in tumor growth"}]}, {"smiles": "COc1cc2cc(c1Cl)N(C)C(=O)C[C@H](OC(=O)[C@H](C)N(C)C(=O)CCSSC[C@H](NC(=O)[C@H](CC(=O)O)NC(=O)[C@H](CCCNC(=N)N)NC(=O)[C@H](CC(=O)O)NC(=O)CCCCn1cc(CCCC(=O)O)nn1)C(=O)O)[C@@]1(C)O[C@H]1[C@H](C)[C@@H]1C[C@@](O)(NC(=O)O1)[C@H](OC)/C=C/C=C(\\C)C2", "note": "[Compound 9b, Untargeted DM1 Conjugate]", "values": [{"measurement": "binding affinity for recombinant CAIX in vitro (in words)", "setting": "[3]", "value": "do not exhibit strong binding"}]}, {"smiles": "COc1cc2[nH]c(C(=O)N3C[C@@H](CCl)c4c3cc(O)c3ccccc43)cc2cc1OCCN(C)C", "note": "[Compound 14, Seco CBI Drug]", "values": [{"measurement": "EC50", "setting": "[4]; [8]", "value": "0.055 ± 0.005", "unit": "nM"}, {"measurement": "EC50", "setting": "[4]; [9]", "value": "1 ± 0.1", "unit": "nM"}]}, {"smiles": "CC1(C)C(/C=C/C2=C(c3ccc(CCCCC(=O)NCCOCCOCCNC(=O)[C@H](CCCCNC(=O)[C@H](CC(=O)O)NC(=O)[C@H](CC(=O)O)NC(=O)CCCCn4cc(CCCC(=O)Nc5nnc(S(N)(=O)=O)s5)nn4)NC(=O)[C@H](CC(=O)O)NC(=O)[C@H](CC(=O)O)NC(=O)CCCCn4cc(CCCC(=O)Nc5nnc(S(N)(=O)=O)s5)nn4)cc3)C(=C/C=C3/N(CCCCS(=O)(=O)O)c4ccc(S(=O)(=O)O)cc4C3(C)C)/CCC2)=[N+](CCCCS(=O)(=O)[O-])c2ccc(S(=O)(=O)O)cc21", "note": "[Compound B4]", "values": [{"measurement": "accumulation in the tumour (imaging)", "setting": "[6]", "value": "strongly accumulated in the tumour"}, {"measurement": "integrated fluorescence signal in the tumour, of its initial value", "setting": "[6]", "value": 40, "unit": "%"}, {"measurement": "residence on the tumour", "setting": "[6]", "value": "significantly longer residence on the tumour"}, {"measurement": "tumour:lung ratio", "setting": "[6]", "value": "higher tumour:lung ratio than B3"}]}, {"smiles": "COc1cc2cc(c1Cl)N(C)C(=O)C[C@H](OC(=O)[C@H](C)N(C)C(=O)CCS)[C@]1(C)O[C@H]1[C@H](C)[C@@H]1C[C@@](O)(NC(=O)O1)[C@H](OC)/C=C/C=C(\\C)C2", "note": "[DM1, reference compound]", "values": [{"measurement": "EC50", "setting": "[4]; [7]", "value": "45 ± 10", "unit": "nM"}]}, {"smiles": "COc1cc2cc(c1Cl)N(C)C(=O)C[C@@H](OC(=O)[C@@H](C)NC(=O)CCSC)[C@]1(C)O[C@@H]1[C@@H](C)[C@@H]1C[C@](O)(NC(=O)O1)[C@@H](OC)/C=C/C=C(\\C)C2", "note": "[DM1SMe, DM1-SMe, reference compound]", "values": [{"measurement": "EC50", "setting": "[4]; [8]", "value": 0.5, "unit": "nM"}, {"measurement": "EC50", "setting": "[4]; [9]", "value": "5.8 ± 1.1", "unit": "nM"}]}, {"smiles": "CNC(=O)c1cc(Oc2ccc(NC(=O)Nc3ccc(Cl)c(C(F)(F)F)c3)cc2)ccn1", "note": "[sorafenib, reference compound]", "values": [{"measurement": "antitumor effect of standard drugs", "setting": "[5]; standard dose of 30 mg/kg", "value": "neither sorafenib nor sunitinib, which represent the most commonly used chemotherapeutic agents for the treatment of kidney cancer, exhibited any detectable antitumor effect"}]}]}
